Measurements: patent US6833249B2, “Quick and sensitive method of quantifying mycolic acid to develop anti-microbial agents and a diagnostic kit thereof” (Council of Scientific and Industrial Research, priority 2002, dated 2004)

System: mycolic acid biosynthesis
Assay: spectrophotometric assay of mycolic acid (carbol fuchsin complex) from treated M. smegmatis cells
Type: cell-based, Mycobacterium smegmatis
Conditions: for production/synthesis of mycolic acid: Mycobacterium smegmatis treated with the substance, result in words; for absorbance at 495.89 nm: mycolic acid-carbol fuchsin complex in hexane, M. smegmatis grown 48 hrs at sub-lethal concentration (½ MIC): extract 312 μg/ml, thebaine 150 μg/ml, isoniazid 1 μg/ml, untreated control 1.4885
Description: Mycolic acids are branched, β-hydroxy fatty acids which occur in the cell wall of Corynebacterium, Nocardia and Mycobacterium. Their molecular size varies with the genus, i.e., from 30, 50, 80-carbon atoms in the order described above. Because of the correlation between genus and mycolic acid size, the test for this biochemical marker is done in the early stage of the identification of unknown actinomycetes. The method followed in this invention for the extraction of mycolic acid is according to Minniken et al. (1975). After proper growth of the bacteria, the culture is centrifuged at 5000 RPM for 5 minutes and lyophilized. Dry bacteria (100 mg) are mixed with methanol (5 ml), Toluene (5 ml) and concentrated sulphuric acid (0.2 ml) in a 20-ml screw cap tube (poly tetra fluoro ethylene lined). The contents of the tube are mixed thoroughly and methanolysis is allowed to proceed for 12-16 hours at 75° C. (stationary incubation). The reaction mixture is allowed to cool and mycolic acid is extracted by adding 1 ml of hexane. After vigorous mixing the mixture is allowed to settle and the upper hexane layer containing mycolic acid is collected. Samples of the hexane extract were spotted on TLC coated with Merck silica gel H (0.5 mm), along with standard mycolic acid and the chromatogram is developed in petroleum ether: diethyl ether (85:15).
By using this method the mycolic acid produced by the control was quantified as well as treated cells of M. smegmatis with different plant extracts and compounds. Some of the compounds are known to inhibit mycolic acid biosynthesis and others are plant extracts and unknown compounds. The compounds and the extracts were selected on the basis of loosening of acid fast stain in Mycobacterium smegmatis.
The culture of Mycobacterium smegmatis was frown in nutrient broth containing the sub-lethal concentration (½ MIC) of the compounds/extracts for 48 hrs. The cells were harvested by centrifugation and the pellets were lyophilized. Equal amount of the cells (100 mg) were taken both of control and treated cells and kept for methanolysis overnight as described in Example 1. The extracted hexane layer was allowed to dry and a common stock (5 mg/ml) was used to run a TLC plate to determine how much the inhibition of mycolic acid by calculation the amount of produced mycolic acid by a densitometer.
Compounds, which were showing loosening of acid fast staining, were also tested for spectrophotometric assay. The strain of Mycobacterium smegmatis giving 100% acid fast staining was grown for 48 hours in 50 ml culture media. As described earlier treatment of different compounds were given at sub-lethal concentrations in replicates were also grown for 48 hours. […]
The details of the treatments and the absorbance by different treatments are described in Table 2.

SMILES | production/synthesis of mycolic acid | absorbance at 495.89 nm
NNC(=O)c1ccncc1 [Isoniazid] | does not allow the production of mycolic acid | 0
COC1=CC=C2[C@H]3Cc4ccc(OC)c5c4[C@@]2(CCN3C)[C@H]1O5 [Thebaine] | do not allow the synthesis of mycolic acid | 0
